Results taken from patent US10377729B2, “Bis-furan derivatives as transthyretin (TTR) stabilizers and amyloid inhibitors for the treatment of familial amyloid polyneuropathy (FAP)” (BSIM Therapeutics, S.A., priority 2015, dated 2019).
“And” between values parts separate entries of the source, which are not always exact repeats. Equal entries are not always repeated. “Also recorded” adds a separate entry of the source. Where two headings read alike, the source gives them in different places.

Experiments:
[1] = system: TTR in human plasma (versus albumin and thyroxine-binding globulin); assay: Ex vivo thyroxine ([125I]-T4) competition assay in human plasma (native PAGE); settings: FIG. 9 A; for displacement of T4 from TTR / binding affinity for TTR (increasing order, in words): heterozygotic TTR V30M carriers and normal subjects, B
Method: After electrophoresis, the gels are dried, subjected to phosphor imaging (Typhoon 8600; […], Amersham Biosciences), and analysed using the ImageQuant program version 5.1. The intensity of the protein bands is compared. Two or three bands of different intensity should be visualized in plasma samples.
The results are analyzed by calculation of the TTR/total (TTR+ALB+TBG) ratio for each sample.

[2] = target: recombinant human wild-type TTR (WT-TTR) (Homo sapiens (Human), UniProt P02766); settings: for IEI (inhibition efficiency index): IEI = (pIC50/MW) × 1000; for ILE (inhibition lipophilic efficiency): ILE = pIC50 − cLogP; for inhibition of amyloid fibril formation by TTR (in words): compounds at 2×, 1× and 0.5× of WT-TTR (3.6 μM), 72 hours, FIG. 5; for pIC50: negative logarithm of IC50 values; for IC50: read-out: IC50 ± S.D. (concentration inhibiting TTR amyloid fibril formation by 50%), WT-TTR 3.6 μM, pH 4.4, 72 hours at 37° C., mean of at least 3 determinations
Method: In an embodiment, the TTR aggregation assay was conducted. […] In this assay, a solution of the test compound is added to a solution of TTR, so that the final concentration is 3.6 μM in protein (TTR) and 7.2, 3.6 and 1.8 μM in the test compound. At such concentrations, compounds may exert their activity through binding to one or both TTR binding sites. The pH of the resulting solution is then lowered to 4.4 to promote amyloidogenesis. The process of amyloid fibril formation over time is assessed by turbidity measurements at three different wavelengths, using a spectrophotometer endowed with a microplate reader.
In an embodiment, the extent of fibril formation of each mixture was normalized by comparison to a sample with protein (TTR) in absence of test compounds, which, at the end of 72 hours, represents 100% of amyloid fibril formation. In each experiment, each compound concentration was tested in triplicate. For each compound concentration, the arithmetic mean of the triplicate experiments was calculated, as well as the arithmetic mean of the three measured wavelengths.
In an embodiment, the IC50 determination assay was conducted. […] Ten different compound concentrations were used for each IC50 determination, while the protein concentration was kept constant at 3.6 μM (FIG. 6).
In an embodiment, the compound preparation for amyloid fibril formation assay was conducted as follows: compounds were prepared as 10.8 mM stock solutions in pure DMSO. Several dilutions in DMSO of the stock solution were made to provide secondary stock solutions. The concentrations were chosen depending on the efficacy of the compound in inhibiting the formation of TTR amyloid fibrils.
In an embodiment, the amyloid fibril formation assay used in this disclosure was based on the one presented in reference [46] and adapted to run in a 96-well microplate. For this purpose, 1 μL of different compound secondary stock solutions was added to 50 μL of a 7.2 μM WT-TTR solution in 10 mM sodium phosphate buffer, 100 mM KCl and 1 mM EDTA, pH 7.2, previously dialyzed against the same buffer solution. After 30 minutes of incubation at room temperature, the pH of the mixture was lowered to 4.4 with 49 μL of 200 mM acetate buffer, 100 mM KCl and 1 mM EDTA, pH 4.3. […] The mixtures were incubated at 37° C. for 72 hours.
In an embodiment, the turbidity at 405 nm, 450 nm and 490 nm (or 550, 600 and 650 nm when the compound absorbs at the previous wavelengths) was measured over time using a microplate spectrophotometer (BioTek Instruments, Inc. Winooski, Vt., USA) to evaluate the extent of fibril formation. Immediately before the turbidity measurements, the mixtures were gently shaken for 1 minute for homogenization but to avoid damaging the formed amyloid aggregates and fibrils. The final turbidity for each compound concentration tested in triplicate was calculated as an average of the three wavelengths measured. In addition, control samples containing TTR with no inhibitor and 1% DMSO, as well as inhibitor in absence of TTR, were tested and analyzed.
In an embodiment, the extent of amyloid fibril formation was compared to WT-TTR with no inhibitor, assigned to be 100% amyloid fibril formation (or 0% amyloid inhibition) at the end of the experiment.
IC50 values were determined by monitoring the effect of increasing concentrations of the compounds under test on the inhibition values. Ten different compound concentrations were used for each IC50 assay, along with a fixed WT-TTR concentration (3.6 μM).

[3] = target: wild type TTR in human plasma (Homo sapiens (Human), UniProt P02766); assay: Ex vivo TTR stability to dissociation assay (IEF, 4 M urea), plasma of normal subjects; type: biochemical; settings: wild type TTR plasmas, 5 samples, IEF densitometry
Method: (§1) In an embodiment, the AT09-B00 compound was further tested ex vivo for its effect on the stability of human plasma TTR, using isoelectric focusing (IEF) under semi-denaturating conditions, i.e. in the presence of 4 M of urea—as described in this disclosure and in references. After plasma incubation with the test and reference compounds, TTR was isolated by PAGE and run on IEF. Bands corresponding to different TTR species were quantified and the tetramer to total protein ratio was determined. Under the experimental conditions used, TTR presented a typical pattern of two main bands, representing monomers (normal and oxidized forms), and several bands of lower isoelectric point (pI) indicating different forms of TTR tetramers.
(§2) In an embodiment, ex vivo TTR stability assays were conducted. Plasma TTR stability to dissociation is assessed by isoelectric focusing (IEF) in semi-denaturing conditions of human plasma samples as described in references. To perform the assay, 30 μL of human plasma are incubated with 5 μL of a 10 mM solution of test compounds and control compounds overnight at 4° C. followed by a 1 hour incubation at room temperature. The samples are then subjected to native PAGE and the gel band containing TTR is excised and applied to an IEF gel. […] The results are expressed as the average ratio of TTR tetramer for over total TTR over 5 repetitions±the standard deviation.

TTR V30M in human plasma = TTR V30M in human plasma (Homo sapiens (Human), UniProt P02766, V30M); assay: Ex vivo TTR stability to dissociation assay (IEF, 4 M urea), plasma of heterozygotic V30M carriers; type: biochemical; settings: plasmas of heterozygotic V30M carriers, 5 samples, IEF densitometry
Method: as §1, §2

[4] = system: HepG2 cells (human liver carcinoma cell line); assay: HepG2 cell viability assay (resazurin reduction); type: cell-based; settings: for toxicity for HepG2 cells (in words): 72 hours, even at high doses, FIG. 10; for ID50: HepG2, 72 hours of incubation
Method: In an embodiment, the toxicity profiling in HepG2 cell lines was evaluated. […] Further toxicology is required if AT09 compounds are to be progressed to subsequent stages of development, not only to discard potential liver damage (or toxicity to other organs/tissues) but also given the long-term nature of treatments required by patients suffering from TTR amyloidoses (such as FAP), associated co-morbidities, or other TTR-related pathologies.
In an embodiment, the HepG2 cell viability assay was conducted as follows:
Adherent human hepatoma cells HepG2 were cultured in DMEM (Dulbecco's Modified Eagle's Medium) with 10% fetal bovine serum (FBS), 100 U/mL penicillin, 100 μg/mL streptomycin, and 1 mM sodium pyruvate. The cells were grown in 75 cm^2 culture flasks at 37° C., in an atmosphere of 5% CO2, and subcultured twice a week using a trypsin-EDTA solution.
Upon 3-4 days of growth and reaching approximately 90-95% confluence, HepG2 cells were plated in 96-well microplates with cell density of 12×10^3 cells/well and in a volume of 100 μL per well.
In this assay, the compounds were dissolved in pure DMSO and subsequently diluted in DMEM (in 9 intermediate compound concentrations). After adhesion of HepG2 cells to the microplates, 100 μL of each solution of intermediate compound concentration was added to each well (in quadruplicate). Positive controls with 10 wells containing only cells were tested; solvent controls resulted from the analyses of the three highest DMSO concentrations tested and were carried out in triplicate.
After addition of the compounds to the cells, the microplates were incubated for approximately 72 hours at 37° C. in an atmosphere of 5% CO2 until the cell viability assay was performed.
The viability of HepG2 cells in the presence of test compounds was assessed by the resazurin reduction assay. A stock solution of 0.01% resazurin in PBS is diluted 1:10 in incomplete RPMI 1640 cell medium (without addition of antibiotics and FBS). After washing the cells with 200 μL PBS containing Ca^2+ and Mg^2+, 200 μL of 0.001% resazurin were added to the wells. Blanks with incomplete RPMI 1640 medium alone were done in triplicate. The microplates were incubated at 37° C. and 5% CO2 for approximately 2-4 hours.
To quantify the reduction of resazurin, microplate absorbance readings were taken at two wavelengths, 540 nm (reduced form) and 630 nm (oxidized form), in a microplate spectrophotometer (BioTek Instruments, Inc.). The percentage of viable cells at each compound concentration was determined using the equation % viable cells=[(ε630 nm×Abs540 nm)−(ε540 nm×Abs630 nm)]/[(ε630 nm×Ctrl540 nm)−(ε540 nm×Ctrl630 nm)]
where ε is the molar extinction coefficient, Abs is the absorbance and Ctrl is the absorbance of the positive control (cells without compound).

WT-TTR = WT-TTR (Homo sapiens (Human), UniProt P02766); assay: Isothermal titration calorimetry (ITC) with WT-TTR; settings: 25° C., pH 7.2, 2% DMSO, model with two ligand-binding sites
Method: In an embodiment, Isothermal titration calorimetry (ITC) experiments were conducted to determine the binding constants of bis-furan compounds to TTR. […] An initial injection of 4 μL of titrant was followed by 28 regular injections of 10 μL until saturation of the titrated solution was reached. The heat associated with each injection was measured throughout time and calculated by integration of the area under the deflection of the measured peak, after baseline correction (i.e. subtraction of blank). Further details about the ITC experiments are provided herein.
The corresponding dissociation constants were calculated according to the equation given herein.
In an embodiment, the isothermal titration calorimetry (ITC) experiments were performed on a Malvern high precision VP-ITC titration calorimetry system (Malvern Instruments, Worcestershire, UK; previously from MicroCal). Compound stock solutions were prepared in pure DMSO. Both compound and WT-TTR dilutions were prepared in 20 mM sodium phosphate buffer, 150 mM sodium chloride and 2% DMSO, at pH 7.2. All solutions were filtered and degassed prior to use.
In an embodiment, in all titrations, the initial injection of 4 μL of titrant to the calorimetric cell was followed by 28 injections at regular intervals of 10 μL each, until saturation of the titrated solution was reached. […] The extent of binding was determined by direct measurement of the heat exchanged with the environment: the heat associated with each injection is proportional to the complex concentration and can be calculated by integrating the area under the deflection of the measured calorimetric signal. Data were analyzed with the Origin 7.0 software package from Malvern. A baseline correction was applied to each experiment by subtraction of data from injections of ligand solution into a buffer blank correlating to the heat of dilution of the ligand solution. For the calculation of the association constant (Ka), data analysis was performed according to a model of binding to a macromolecule with two ligand-binding sites, by non-linear regression. The reported dissociation constant (Kd) is the reciprocal of Ka, according to the equation ΔG=−RTInKa=RTInKd, where ΔG is the Gibbs free energy of binding, R is the gas constant and T is the temperature.

[5] = system: familial amyloid polyneuropathy (FAP) patients; settings: 18-month phase-III clinical trial; cited from earlier work
AD/TTR+/− mice = settings: cited from earlier work

| Compound | IEI (inhibition efficiency index) [2] | ILE (inhibition lipophilic efficiency) [2] | pIC50 [2] | IC50 [2] | displacement of T4 from TTR / binding affinity for TTR (increasing order, in words) [1] | inhibition of amyloid fibril formation by TTR (in words) [2] | further results |
| --- | --- | --- | --- | --- | --- | --- | --- |
| Cc1c(C(=O)O)coc1/C=C/c1ccc(Cl)o1 [AT09-B00, (E)-5-(2-(5-chlorofuran-2-yl)vinyl)-4-methylfuran-3-carboxylic acid] | 22.6 | 2.77 | 5.69 | 2020 nM | iododiflunisal<tafamidis<AT09-B00; also recorded: at least comparable to the current drug | approaching the high levels of activity of 2OH—PCB80 | specificity for TTR versus TBG and albumin (in words) ([1]; band intensity): small difference in band intensity for TBG and albumin; tetramer to total protein ratio [3]: 0.961; tetramer to total protein ratio (TTR V30M in human plasma): 0.481; toxicity for HepG2 cells (in words) [4]: relatively low toxicity for HepG2 cells; Kd (WT-TTR; read-out: Kd1): 3.5 nM; Kd (WT-TTR; read-out: Kd2): 357 nM |
| Cc1oc(CSCc2cc(C(=O)O)c(C)o2)cc1C(=O)O [AT09-A00, bis((3-carboxy-2-methyl-furan-5-yl)methyl)sulfane] | – | – | – | 7100 nM | – | lower inhibitory activity than tafamidis and thyroxine | – |
| (E)-5-(2-(5-chlorofuran-2-yl)vinyl)-1-methylfuran-3-carboxylic acid [AT09-B06] | 22.3 | 2.99 | 5.60 | 2490 nM | – | stronger inhibition | toxicity for HepG2 cells (in words) [4]: relatively low toxicity for HepG2 cells; Kd (WT-TTR; read-out: Kd1): 3.9 nM; Kd (WT-TTR; read-out: Kd2): 278 nM |
| Oc1c(Cl)cc(-c2cc(Cl)c(O)c(Cl)c2)cc1Cl [Compound 2OH-PCB80, reference compound] | 18.0 | 0.37 | 5.80 | 1590 nM | – | – | ID50 [4]: 19.4 μg/mL and 60 μM |
| CNC[C@H](O)[C@@H](O)[C@H](O)[C@H](O)CO.O=C(O)c1ccc2nc(-c3cc(Cl)cc(Cl)c3)oc2c1 [Tafamidis meglumine, N-methyl D-(2,3,4,5,6-pentahydroxy-hexyl)-ammonium; 2-(3,5-dichloro-phenyl)-benzoxazole-6-carboxylate] | – | – | – | – | – | – | FAP patients with improvement of symptoms [5]: approximately 60% |
| O=C(O)c1cc(-c2ccc(F)cc2F)cc(I)c1O [iododiflunisal, reference compound] | – | – | – | – | iododiflunisal<tafamidis<AT09-B00 | – | tetramer to total protein ratio [3]: 0.768; tetramer to total protein ratio (TTR V30M in human plasma): 0.445; brain Abeta levels and deposition, cognitive function (AD/TTR+/− mice): decreased brain Aβ levels and deposition; also recorded: decreased brain Abeta levels and deposition |
| O=C(O)c1ccc2nc(-c3cc(Cl)cc(Cl)c3)oc2c1 [Tafamidis] | – | – | – | – | iododiflunisal<tafamidis<AT09-B00 | – | FAP patients with improvement of symptoms [5]: approximately 60%; ID50 [4]: 76.1 μg/mL and 247 μM; ID50 ([4]; listed as tafamidis): more than 75 μg/mL |
